# According to ChEMBL document CHEMBL2073980, “Molecular cloning and characterization of the murine bile salt export pump” (Gene, 2000):
# What was measured:
# Assay type in all cases: functional, cell membranes, Membrane vesicle
# Parameters in all cases: scale not given: the % may be the effect or the level left
# [1] = target: T1, Bsep (bile salt export pump) (Mus musculus, UniProt Q9QY30); test: TP_TRANSPORTER: inhibition of Taurocholate uptake (Taurochorate: 5 uM, CDCA: 50 uM) in membrane vesicles isolated from Bsep-expressing Balb-3T3 cells; details: probe taurocholate, read-out: Activity
# T1 sequence (Q9QY30 whole entry): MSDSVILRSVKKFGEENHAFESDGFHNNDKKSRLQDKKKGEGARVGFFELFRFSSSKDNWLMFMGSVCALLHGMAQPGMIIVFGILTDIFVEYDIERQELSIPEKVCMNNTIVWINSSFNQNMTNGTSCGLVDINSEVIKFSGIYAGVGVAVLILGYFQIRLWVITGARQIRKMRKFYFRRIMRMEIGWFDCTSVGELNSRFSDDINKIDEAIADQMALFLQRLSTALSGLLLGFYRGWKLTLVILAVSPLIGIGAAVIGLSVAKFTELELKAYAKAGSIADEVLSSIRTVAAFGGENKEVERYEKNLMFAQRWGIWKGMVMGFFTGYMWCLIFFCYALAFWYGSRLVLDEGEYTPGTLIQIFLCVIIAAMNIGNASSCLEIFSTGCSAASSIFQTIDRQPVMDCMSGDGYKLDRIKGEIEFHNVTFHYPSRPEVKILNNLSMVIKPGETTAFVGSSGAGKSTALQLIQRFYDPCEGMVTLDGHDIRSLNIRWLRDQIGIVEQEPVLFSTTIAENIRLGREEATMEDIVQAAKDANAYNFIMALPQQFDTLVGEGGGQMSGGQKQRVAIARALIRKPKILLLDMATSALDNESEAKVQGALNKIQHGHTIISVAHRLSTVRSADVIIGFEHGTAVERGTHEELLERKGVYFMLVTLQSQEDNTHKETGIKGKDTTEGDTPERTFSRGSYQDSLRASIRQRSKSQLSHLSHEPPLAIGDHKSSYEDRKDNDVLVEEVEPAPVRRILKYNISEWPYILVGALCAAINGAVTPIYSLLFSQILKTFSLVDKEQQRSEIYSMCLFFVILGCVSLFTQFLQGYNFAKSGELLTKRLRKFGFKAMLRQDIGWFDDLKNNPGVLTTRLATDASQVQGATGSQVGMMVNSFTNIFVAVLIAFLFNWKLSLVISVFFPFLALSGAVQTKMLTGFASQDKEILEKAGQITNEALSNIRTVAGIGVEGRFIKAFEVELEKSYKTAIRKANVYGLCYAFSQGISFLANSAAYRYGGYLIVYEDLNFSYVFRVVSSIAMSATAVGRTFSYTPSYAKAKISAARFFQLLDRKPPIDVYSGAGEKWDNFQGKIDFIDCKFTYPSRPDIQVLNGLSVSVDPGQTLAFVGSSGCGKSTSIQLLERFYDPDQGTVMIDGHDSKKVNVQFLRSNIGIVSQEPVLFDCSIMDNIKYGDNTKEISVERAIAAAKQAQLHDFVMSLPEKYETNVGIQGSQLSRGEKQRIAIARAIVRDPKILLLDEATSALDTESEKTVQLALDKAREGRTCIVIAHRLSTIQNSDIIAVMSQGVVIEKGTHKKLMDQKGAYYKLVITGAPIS
# Bile salt export pump = target: T2, Bile salt export pump (Mus musculus, UniProt Q9QY30); test: TP_TRANSPORTER: inhibition of Taurocholate uptake (Taurochorate: 5 uM, UDCA: 50 uM) in membrane vesicles isolated from Bsep-expressing Balb-3T3 cells; details: balb/3t3, 50 µM
# T2 sequence (Q9QY30 whole entry): T1 sequence (Q9QY30 whole entry)
# [2] = target: T1, Bsep (bile salt export pump); test: TP_TRANSPORTER: inhibition of Taurocholate uptake (Taurochorate: 5 uM, TDCA: 50 uM) in membrane vesicles isolated from Bsep-expressing Balb-3T3 cells; details: probe taurocholate, read-out: Activity
# [3] = target: T1, Bsep (bile salt export pump); test: TP_TRANSPORTER: inhibition of Taurocholate uptake (Taurochorate: 5 uM, TCDC: 50 uM) in membrane vesicles isolated from Bsep-expressing Balb-3T3 cells; details: probe taurocholate, read-out: Activity
smiles,measurement,setting,value
C[C@H](CCC(=O)O)[C@H]1CC[C@H]2[C@@H]3[C@H](O)C[C@@H]4C[C@H](O)CC[C@]4(C)[C@H]3CC[C@]12C [CHENODIOL],activity at 50 µM,[1],11%
C[C@H](CCC(=O)O)[C@H]1CC[C@H]2[C@@H]3[C@@H](O)C[C@@H]4C[C@H](O)CC[C@]4(C)[C@H]3CC[C@]12C [URSODIOL],Activity,Bile salt export pump,51%
C[C@H](CCC(=O)NCCS(=O)(=O)O)[C@H]1CC[C@H]2[C@@H]3CC[C@@H]4C[C@H](O)CC[C@]4(C)[C@H]3C[C@H](O)[C@]12C [TAURODEOXYCHOLIC ACID],activity at 50 µM,[2],5%
C[C@H](CCC(=O)NCCS(=O)(=O)O)[C@H]1CC[C@H]2[C@@H]3[C@H](O)C[C@@H]4C[C@H](O)CC[C@]4(C)[C@H]3CC[C@]12C [TAUROCHENODEOXYCHOLATE],activity at 50 µM,[3],25%
